Data on eight molecules can be found in ChEMBL document CHEMBL5579881, “Synthesis of the Corrected Structure Assigned to Clonorosin B, an Alkaloid Obtained from the Soil-derived Fungus Clonostachys rosea YRS-06” (J Nat Prod, 2024).

Molecules are shown by their SMILES. Calls of active or inactive are those of the source. No cut-off for these calls is given here.

One data set concerns Escherichia coli. Nature of the data set: Antibacterial activity against Escherichia coli ATCC 11775 assessed as inhibition of microbial growth at 0.01 to 30 uM after 24 hrs by spectrophotometric analysis. Conditions: dose 0.01-30 µM. Type of data set: functional, organism-based.
The test system of data set [1] is Staphylococcus aureus. The experiment in a line: Antibacterial activity against Staphylococcus aureus ATCC 25923 assessed as inhibition of microbial growth at 0.01 to 30 uM after 24 hrs by spectrophotometric analysis. Type of data set: functional, organism-based. Conditions: dose 0.01-30 µM.
The test system of data set [2] is Staphylococcus aureus. The experiment in a line: Antibacterial activity against methicillin-resistant Staphylococcus aureus AUS-RBWH-MRSA-02 assessed as inhibition of microbial growth at 0.01 to 30 uM after 24 hrs by spectrophotometric analysis. Type of data set: functional, organism-based. Conditions: dose 0.01-30 µM.
The test system of the next data set is Candida albicans. The experiment in a line: Antifungal activity against Candida albicans ATCC 10231 assessed as inhibition of fungal growth at 0.01 to 30 uM after 24 hrs by spectrophotometric analysis. The note with it: dose 0.01-30 µM. Type of data set: functional, organism-based.
Another data set has as its system SW-620. The experiment in a line: Cytotoxicity against human SW620 cells assessed as growth inhibition at 0.01 to 30 uM incubated for 48 hrs by MTT assay. Format: functional, cell-based. Conditions: dose 0.01-30 µM. In general terms: Tetrazolium assays rely on reduction of a dye to a coloured formazan, in cell work by metabolically active cells.
In data set [3] the target is ATP-dependent translocase ABCB1 (Homo sapiens, UniProt P08183). Nature of the data set: Inhibition of P-gp in human SW620/AD300 cells assessed as reduction in doxorubicin IC50 at 5 uM incubated for 48 hrs by MTT assat. The note with it: sw620/ad300, 48 h. Format: functional, cell-based.
Chain of ATP-dependent translocase ABCB1 (P08183 whole entry): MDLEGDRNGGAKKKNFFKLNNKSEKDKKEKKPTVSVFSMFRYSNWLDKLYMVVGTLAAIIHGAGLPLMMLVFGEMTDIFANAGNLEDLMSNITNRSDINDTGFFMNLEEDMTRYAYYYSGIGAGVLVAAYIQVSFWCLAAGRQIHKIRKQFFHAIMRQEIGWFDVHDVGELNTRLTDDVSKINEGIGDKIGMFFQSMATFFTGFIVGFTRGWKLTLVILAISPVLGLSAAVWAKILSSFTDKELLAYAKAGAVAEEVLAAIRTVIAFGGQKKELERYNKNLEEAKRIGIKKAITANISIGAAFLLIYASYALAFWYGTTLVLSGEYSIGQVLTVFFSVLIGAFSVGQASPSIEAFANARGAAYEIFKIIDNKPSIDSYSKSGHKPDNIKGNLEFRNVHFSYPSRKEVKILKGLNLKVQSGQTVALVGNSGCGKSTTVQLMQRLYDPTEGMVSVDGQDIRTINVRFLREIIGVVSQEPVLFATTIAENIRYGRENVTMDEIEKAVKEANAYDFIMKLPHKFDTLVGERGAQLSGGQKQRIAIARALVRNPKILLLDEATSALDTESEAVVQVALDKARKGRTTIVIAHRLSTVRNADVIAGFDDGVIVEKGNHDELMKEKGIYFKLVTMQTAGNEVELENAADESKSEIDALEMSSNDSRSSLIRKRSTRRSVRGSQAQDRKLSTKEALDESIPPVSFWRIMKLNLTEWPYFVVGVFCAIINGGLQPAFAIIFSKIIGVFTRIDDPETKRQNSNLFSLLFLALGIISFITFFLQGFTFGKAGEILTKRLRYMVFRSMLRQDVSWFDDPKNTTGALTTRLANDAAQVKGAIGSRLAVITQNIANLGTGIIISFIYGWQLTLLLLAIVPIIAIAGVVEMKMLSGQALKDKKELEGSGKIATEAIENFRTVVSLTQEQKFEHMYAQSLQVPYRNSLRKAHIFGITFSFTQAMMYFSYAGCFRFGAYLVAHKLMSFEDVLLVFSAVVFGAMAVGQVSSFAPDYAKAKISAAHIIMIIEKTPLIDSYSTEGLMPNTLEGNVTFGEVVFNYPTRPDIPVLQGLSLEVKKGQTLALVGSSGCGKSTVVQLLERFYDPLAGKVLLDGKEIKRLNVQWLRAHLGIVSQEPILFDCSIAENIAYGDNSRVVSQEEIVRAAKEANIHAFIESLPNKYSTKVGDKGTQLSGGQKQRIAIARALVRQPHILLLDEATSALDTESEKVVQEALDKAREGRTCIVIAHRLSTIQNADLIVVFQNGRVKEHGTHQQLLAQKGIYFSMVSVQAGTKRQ

As to `O=C1c2ccc(O)c(O)c2Cn2cccc21`, the inhibition entry in the data set with Escherichia coli, in the data set on Staphylococcus aureus [1], in the data set on Staphylococcus aureus [2] and in the data set on Candida albicans was “inactive” in each case. Also, in the data set on SW-620, the “growth inhibition (GI)” value was “inactive”. Also, in data set [3], the “inhibition (INH)” value is “Not Active”.

As for `O=C(O)c1cccn1Cc1cccc2c1OCO2`, the inhibition entry in the data set with Escherichia coli, in the data set on Staphylococcus aureus [1], in the data set with Staphylococcus aureus [2] and in the data set with Candida albicans was “inactive” throughout. Further, in the data set with SW-620, the “growth inhibition (GI)” value was “inactive”. The “inhibition (INH)” value in data set [3] is “Not Active”.

Take `COc1ccc2c(c1OC)Cn1cccc1C2=O`: the inhibition entry with Escherichia coli, in the data set on Staphylococcus aureus [1], in the data set on Staphylococcus aureus [2] and with Candida albicans was “inactive” in each case. In the data set with SW-620, the “growth inhibition (GI)” value was “inactive”. Besides, in data set [3], the “inhibition (INH)” value is listed as “Not Active”.

For `O=C1c2ccc3c(c2Cn2cccc21)OCO3`, the inhibition result with Escherichia coli, with Staphylococcus aureus [1], with Staphylococcus aureus [2] and in the data set on Candida albicans was “inactive” throughout. In the data set on SW-620, the “growth inhibition (GI)” value is “inactive”. In data set [3], the “inhibition (INH)” value was “Not Active”.

With `COC(=O)c1cccn1Cc1cccc(OC)c1OC`, the inhibition entry in the data set on Escherichia coli, with Staphylococcus aureus [1], in the data set on Staphylococcus aureus [2] and in the data set on Candida albicans was “inactive” each time. In the data set with SW-620, the “growth inhibition (GI)” value was “inactive”. Further, the “inhibition (INH)” value in data set [3] was “Not Active”.

On to `O=C(OCc1cccc2c1OCO2)c1ccc[nH]1`, for which the inhibition result in the data set on Escherichia coli, in the data set with Staphylococcus aureus [1], in the data set with Staphylococcus aureus [2] and with Candida albicans was “inactive” each time. The “growth inhibition (GI)” value with SW-620 was “inactive”. In data set [3], the “inhibition (INH)” value is “Not Active”.

Regarding `COC(=O)c1cccn1Cc1cccc2c1OCO2`, the inhibition entry in the data set with Escherichia coli, in the data set with Staphylococcus aureus [1], in the data set on Staphylococcus aureus [2] and in the data set on Candida albicans was “inactive” throughout. Further, the “growth inhibition (GI)” value in the data set on SW-620 is “inactive”. Besides, the “inhibition (INH)” value in data set [3] was “Not Active”.

With `COc1cccc(Cn2cccc2C(=O)O)c1OC`, the inhibition entry in the data set on Escherichia coli, in the data set on Staphylococcus aureus [1], in the data set with Staphylococcus aureus [2] and in the data set on Candida albicans was “inactive” each time. Also, the “growth inhibition (GI)” value in the data set with SW-620 is “inactive”. For the same molecule, in data set [3], the “inhibition (INH)” value is on record as “Not Active”.
